Columns and labels:
skeletal muscle = conditions: oral administration of 1 g per day; cited from earlier work
[1] = test system: mitochondrial electron transport complex I; assay: Western blot of mitochondrial electron transport complex I protein in adipocytes; assay type: cell-based, murine; conditions: 3T3-L1 adipocytes, 48 hrs
Protocol: (§1) Murine 3T3-L1 pre-adipocytes (American Type Culture Collection) were cultured in Dulbecco's Modified Eagle's Medium (DMEM) supplemented with 10% fetal bovine serum and allowed to reach confluence. Differentiation of pre-adipocytes was initiated with 1 μM insulin, 0.25 μM dexamethasone and 0.5 mM 3-isobutyl-1-methylxanthine in DMEM, supplemented with 10% fetal bovine serum. After 48 h, the culture medium was replaced with DMEM supplemented with 10% fetal bovine serum and 1 μM insulin. The culture medium was changed every other day with DMEM containing 10% fetal bovine serum. […] After treatment, cells were washed twice with ice-cold PBS, lysed in sample buffer (62.5 mM Tris-Cl pH 6.8, 2% SDS, 5 mM DTT) at room temperature and vortexed. Cell lysates were then boiled for 5 minutes and cleared by centrifugation (13,000 rpm, 10 minutes at 4° C.). Protein concentration was determined using the Bio-Rad DC protein assay. The soluble lysates (10 μg per lane) were subjected to 10% SDS-PAGE, proteins were then transferred to nitrocellulose membranes and blocked with 5% non-fat milk/TBST for 1 h at room temperature. Membranes were incubated with primary antibodies directed against PPAR-γ (1:1000), PGC-1α (1:1000), α-tubulin (1:10 000), Complex I (1:2000), Complex II (1:2000), Complex III (1:2000) and Complex V (1:2000) in 5% milk/TBST at 4° C. overnight. After washing membranes with TBST three times, membranes were incubated with horseradish peroxidase-conjugated secondary antibody for 1 h at room temperature. Western blots were developed using ECL (Roche Manheim, Germany) and quantified by scanning densitometry.

PGC-1α = assay: Western blot analysis of PGC-1α protein level in adipocytes; assay type: cell-based, murine; conditions: 3T3-L1 adipocytes, 1.0 μM; bell-shape effect from 0.1 to 10.0 μM; mean±SE
Protocol: as §1, with “Membranes were incubated with primary antibodies directed against PPAR-γ (1:1000), PGC-1α (1:1000), α-tubulin (1:10 000), Complex I (1:2000), Complex II (1:2000), Complex III (1:2000) and Complex V (1:2000) in 5% milk/TBST at 4° C. overnight. After washing membranes with TBST three times, membranes were incubated with horseradish peroxidase-conjugated secondary antibody for 1 h at room temperature.” left out

Compound | mitochondrial biogenesis in skeletal muscle (skeletal muscle) | mitochondrial electron transport complex I protein, vs. control ([1]; 0.1 μM) [%] | mitochondrial electron transport complex I protein, vs. control ([1]; 1.0 μM) [%] | mitochondrial electron transport complex I protein, vs. control ([1]; 10.0 μM) [%] | PGC-1α protein expression (maximum), vs. control (PGC-1α) [%]
O=C1O[C@H]([C@@H](O)CO)C(O)=C1O [Vitamin C] | decreases mitochondrial biogenesis | – | – | – | –
OCCc1ccc(O)c(O)c1 [hydroxytyrosol, 3,4-dihydroxyphenylethanol] | – | 131±16 | 163±31 | 138±21 | 205±52

Reference: patent US20100130621A1, “USE OF HYDROXYTYROSOL AS ANTI-AGING AGENT” (DSM IP ASSETS B.V., priority 2007, published 2010)
